Test [1] has as its system RAW264.7. Description: % inhibition against TNF-alpha release in RAW 264.7 cells in the supernatant. The class given is functional, Mus musculus. More on the design: concentration or dose not given beside the values.
The test system of test [2] is N9. Description: % inhibition against TNF-alpha release in N9 cells in the supernatant. The class given is functional, Mus musculus. More on the design: concentration or dose not given beside the values.
The species named for test [3] is Rattus norvegicus. Description: % inhibition against neutrophil degranulation by measuring the content of beta-glucuronidase in the supernatant. The class given is functional. More on the design: concentration or dose not given beside the values.
Test [4] concerns RAW264.7. Briefly: (§1) Inhibitory activity against TNF-alpha release in RAW 264.7 cells in the supernatant. The class given is functional, cell-based. Particulars: Mus musculus.
Test [5] is filed under the species Rattus norvegicus. Briefly: Inhibitory activity against neutrophil degranulation by measuring the content of lysozyme in the supernatant. The class given is functional.
Test [6] is filed under the species Rattus norvegicus. Briefly: 50% inhibition against mast cell degranulation by measuring the content of beta-glucuronidase in the supernatant. It is filed as functional.
Test [7] concerns N9. Briefly: (§2) Inhibitory activity against TNF-alpha release in N9 cells in the supernatant. The class given is functional, cell-based, Mus musculus.
Test [8] is filed under the species Rattus norvegicus. Briefly: Inhibitory activity against neutrophil degranulation by measuring the content of beta-glucuronidase in the supernatant. The class given is functional.
The species entered for test [9] is Rattus norvegicus. Briefly: Inhibitory activity against mast cell degranulation by measuring the content of histamine in the supernatant. The class given is functional.
For test [10], the species on record is Rattus norvegicus. Description: Inhibitory activity against mast cell degranulation by measuring the content of beta-glucuronidase in the supernatant. The class given is functional.
The species named for test [11] is Rattus norvegicus. Description: % inhibition against mast cell degranulation by measuring the content of histamine in the supernatant. It is filed as functional. More on the design: concentration or dose not given beside the values.
For test [12], the species on record is Rattus norvegicus. Description: % inhibition against mast cell degranulation by measuring the content of beta-glucuronidase in the supernatant. Particulars: concentration not given here.
For test [13], the species on record is Rattus norvegicus. Description: % inhibition against mast cell degranulation by measuring the content of beta-glucuronidase in the supernatant. It is filed as functional. Also noted: concentration or dose not given beside the values.
The species named for test [14] is Rattus norvegicus. Description: % inhibition against neutrophil degranulation by measuring the content of lysozyme in the supernatant. It is filed as functional. Also noted: concentration or dose not given beside the values.
For test [15], the system named is N9. Description: 50% inhibition against TNF-alpha release in N9 cells in the supernatant. As to conditions: Mus musculus. The class given is functional, cell-based.
Test [16] has as its system RAW264.7. Description: 50% inhibition against TNF-alpha release in RAW 264.7 cells in the supernatant. It is filed as functional, cell-based. As to conditions: Mus musculus.
Test [17] deals with RAW264.7. Described as §1. The class given is functional, Mus musculus.
The test system of test [18] is N9. Described as §2. The class given is functional, Mus musculus.

The record followed here is ChEMBL document CHEMBL1135625, “Synthesis and antiinflammatory evaluation of 9-anilinoacridine and 9-phenoxyacridine derivatives” (J Med Chem, 2002).

On to `COc1cccc2c(Oc3ccc(C(C)=O)cc3)c3ccccc3nc12`, for which the Inhibition (commonly the relative decrease from the control value, in per cent) in the test on RAW264.7 [1] was 34.3%; in the test with N9 [2], 19.7%; in the test listed under Rattus norvegicus [3], 35.2%. Moreover, the IC50 – broadly, the concentration at which inhibition is half-maximal – with RAW264.7 [4] was above 30 µM; in the test listed under Rattus norvegicus [5], 21.3 µM; in the test filed under Rattus norvegicus [6], 19.5 µM; in the test with N9 [7], above 10 µM; in the test listed under Rattus norvegicus [8], above 30 µM; in the test filed under Rattus norvegicus [9] it was 16 µM.
Turning to `CN1CCN(CCCN2c3ccccc3Sc3ccc(C(F)(F)F)cc32)CC1` [TRIFLUOPERAZINE], the values for the IC50 in the test listed under Rattus norvegicus [10] and in the test listed under Rattus norvegicus [9] were 12.8 µM and 10.1 µM, respectively.
Regarding `COc1ccc2nc3ccccc3c(Oc3ccc(C(C)=O)cc3)c2c1`, the IC50 in the test filed under Rattus norvegicus [10] was above 30 µM; in the test with RAW264.7 [4], 19.3 µM; in the test filed under Rattus norvegicus [5], 18.3 µM; with N9 [7], above 3 µM; in the test listed under Rattus norvegicus [8], 12.9 µM; in the test filed under Rattus norvegicus [9], above 30 µM. For the same molecule, the Inhibition amounted to 36.1% in the test on N9 [2] and 9.4% in the test listed under Rattus norvegicus [11]. Also, the inhibition (commonly the drop in the measured response relative to a control, in per cent) in the test listed under Rattus norvegicus [12] amounted to 25%.
Regarding `CC(=O)c1ccc(Oc2c3ccccc3nc3ccc(Cl)cc23)cc1`, the Inhibition was 4.6% in the test with RAW264.7 [1]; 12.3% in the test on N9 [2]; 29.4% in the test filed under Rattus norvegicus [13]; 14.8% in the test filed under Rattus norvegicus [3]; 14.4% in the test filed under Rattus norvegicus [11]; -16.4% in the test listed under Rattus norvegicus [14]. In addition, the IC50 in the test filed under Rattus norvegicus [10], in the test on RAW264.7 [4], in the test filed under Rattus norvegicus [5], in the test with N9 [7], in the test listed under Rattus norvegicus [8] and in the test listed under Rattus norvegicus [9] was above 30 µM throughout.
Regarding `CCN(CC)CCCC(C)Nc1c2ccc(Cl)cc2nc2ccc(OC)cc12` (stereo not drawn) [QUINACRINE], the IC50 in the test filed under Rattus norvegicus [10] came out at 28.8 µM; in the test listed under Rattus norvegicus [9], 31.2 µM.
For `COc1ccc2nc3cc(Cl)ccc3c(Oc3ccc(C(C)=O)cc3)c2c1`, the Inhibition in the test on RAW264.7 [1] is reported as 33.1%; in the test on N9 [2] it was 45.9%; in the test filed under Rattus norvegicus [13], 26.4%; in the test filed under Rattus norvegicus [3], 10.4%; in the test filed under Rattus norvegicus [11] it was 7.2%; in the test listed under Rattus norvegicus [14] it was -12.8%. Moreover, the IC50 was above 30 µM in the test filed under Rattus norvegicus [10]; above 30 µM with RAW264.7 [4]; above 30 µM in the test listed under Rattus norvegicus [5]; above 10 µM in the test with N9 [7]; above 30 µM in the test listed under Rattus norvegicus [8]; above 30 µM in the test filed under Rattus norvegicus [9].
In the case of `CC(=O)c1ccc(Nc2c3ccccc3nc3ccccc23)cc1`, the Inhibition in the test on RAW264.7 [1] came out at 47.2%; in the test listed under Rattus norvegicus [13], 34.7%; in the test filed under Rattus norvegicus [3], 26.7%; in the test filed under Rattus norvegicus [11], 15.7%. For the same molecule, the IC50 is above 30 µM in the test listed under Rattus norvegicus [10]; 0.8 µM in the test on N9 [15]; 23.7 µM in the test listed under Rattus norvegicus [5]; above 30 µM in the test filed under Rattus norvegicus [8]; above 30 µM in the test listed under Rattus norvegicus [9]; above 10 µM in the test on RAW264.7 [16].
As to `CC(=O)/C=C/c1ccc(Oc2c3ccccc3nc3ccccc23)cc1`, the Inhibition was -15.7% in the test with RAW264.7 [1]; 7.7% in the test listed under Rattus norvegicus [13]; 32.4% in the test filed under Rattus norvegicus [3]; -10.5% in the test listed under Rattus norvegicus [11]; 10.3% in the test listed under Rattus norvegicus [14]. Moreover, the IC50 in the test filed under Rattus norvegicus [10] is above 30 µM; in the test on RAW264.7 [4], above 30 µM; in the test listed under Rattus norvegicus [5], above 30 µM; with N9 [7] it was 8.7 µM; in the test filed under Rattus norvegicus [8] it was above 30 µM; in the test listed under Rattus norvegicus [9], above 30 µM.
With `CC(=O)c1ccc(Oc2c3ccccc3nc3ccccc23)cc1`, the Inhibition in the test on RAW264.7 [1] was 45.6%; in the test on N9 [2], 23.9%; in the test filed under Rattus norvegicus [13] it was 44.6%; in the test filed under Rattus norvegicus [3], 42%; in the test listed under Rattus norvegicus [11], 43.8%. For the same molecule, the IC50 in the test filed under Rattus norvegicus [10] was above 30 µM; in the test on RAW264.7 [4], above 30 µM; in the test listed under Rattus norvegicus [5], 18.7 µM; in the test with N9 [7] it was above 3 µM; in the test filed under Rattus norvegicus [8], above 30 µM; in the test listed under Rattus norvegicus [9] it was above 30 µM.
On to `CO/N=C(\C)c1ccc(Nc2c3ccccc3nc3ccccc23)cc1`, for which the Inhibition in the test on RAW264.7 [1] is on record as 7.2%; in the test with N9 [2], 39.3%; in the test listed under Rattus norvegicus [3] it was 46.9%; in the test filed under Rattus norvegicus [14] it was 15.4%. Moreover, the IC50 was above 3 µM in the test with N9 [15]; above 30 µM in the test listed under Rattus norvegicus [5]; 21 µM in the test listed under Rattus norvegicus [6]; above 30 µM in the test listed under Rattus norvegicus [8]; 20.8 µM in the test listed under Rattus norvegicus [9]; above 30 µM in the test on RAW264.7 [16].
For the molecule `CC(=O)c1ccc(Oc2c3c(nc4ccccc24)CCCC3)cc1`, the Inhibition in the test on RAW264.7 [1] is on record as 48.9%; with N9 [2] it was -3.5%; in the test filed under Rattus norvegicus [13] it was 13.3%; in the test listed under Rattus norvegicus [3], 42.1%; in the test listed under Rattus norvegicus [11], 5.7%; in the test filed under Rattus norvegicus [14], 32.4%. Further, the IC50 in the test filed under Rattus norvegicus [10] was above 30 µM; in the test on RAW264.7 [4] it was above 30 µM; in the test listed under Rattus norvegicus [5], above 30 µM; in the test with N9 [7], above 3 µM; in the test filed under Rattus norvegicus [8], above 30 µM; in the test listed under Rattus norvegicus [9], above 30 µM.
With `C[C@@H]1C[C@H]2[C@@H]3CCC4=CC(=O)C=C[C@]4(C)[C@@]3(F)[C@@H](O)C[C@]2(C)[C@@]1(O)C(=O)CO` [DEXAMETHASONE], the concentration for half-maximal inhibition (IC50) with RAW264.7 [4] was 0.42 µM; with N9 [7], 0.074 µM.
In the case of `O=Cc1ccc(Oc2c3ccccc3nc3ccccc23)cc1`, the IC50 is above 3 µM in the test with N9 [15]; above 30 µM in the test on RAW264.7 [4]; above 30 µM in the test filed under Rattus norvegicus [5]; 20.7 µM in the test listed under Rattus norvegicus [6]; above 30 µM in the test filed under Rattus norvegicus [8]; 21.5 µM in the test listed under Rattus norvegicus [9]. Moreover, the Inhibition in the test filed under Rattus norvegicus [3] amounted to 49.9%; in the test with RAW264.7 [17], 17.2%; in the test listed under Rattus norvegicus [14], 44.8%; with N9 [18], 19.9%.
In the case of `CC(=O)COc1ccc(Nc2c3ccccc3nc3ccccc23)cc1`, the IC50 in the test filed under Rattus norvegicus [10] was above 30 µM; in the test with N9 [15], above 1 µM; in the test filed under Rattus norvegicus [5] it was above 30 µM; in the test filed under Rattus norvegicus [8] it was above 30 µM; in the test filed under Rattus norvegicus [9], above 30 µM; in the test on RAW264.7 [16] it was 8.2 µM. The Inhibition was 6.6% in the test on N9 [2]; 1.3% in the test listed under Rattus norvegicus [13]; 35.8% in the test filed under Rattus norvegicus [3]; 19.2% in the test listed under Rattus norvegicus [11]; 21.6% in the test listed under Rattus norvegicus [14].
As to `C/C(=N\O)c1ccc(Nc2c3ccccc3nc3ccccc23)cc1`, the Inhibition is listed as 44.9% with RAW264.7 [1], 40.1% in the test on N9 [2], 29.5% in the test listed under Rattus norvegicus [13] and 23.3% in the test listed under Rattus norvegicus [11]. Besides, the IC50 in the test filed under Rattus norvegicus [10] is above 30 µM; with N9 [15], above 3 µM; in the test listed under Rattus norvegicus [5], 8.2 µM; in the test filed under Rattus norvegicus [8] it was 4.4 µM; in the test listed under Rattus norvegicus [9], above 30 µM; with RAW264.7 [16], above 10 µM.
